# Laboratory results as given in US8623859B2, “Bradykinin B1 antagonists” (Evotec AG, priority 2008, dated 2014).
# Target: T1, human B1 (Homo sapiens, UniProt P46663)
# T1 construct: host or cells: CHO-K1
# T1 sequence (P46663 1-353): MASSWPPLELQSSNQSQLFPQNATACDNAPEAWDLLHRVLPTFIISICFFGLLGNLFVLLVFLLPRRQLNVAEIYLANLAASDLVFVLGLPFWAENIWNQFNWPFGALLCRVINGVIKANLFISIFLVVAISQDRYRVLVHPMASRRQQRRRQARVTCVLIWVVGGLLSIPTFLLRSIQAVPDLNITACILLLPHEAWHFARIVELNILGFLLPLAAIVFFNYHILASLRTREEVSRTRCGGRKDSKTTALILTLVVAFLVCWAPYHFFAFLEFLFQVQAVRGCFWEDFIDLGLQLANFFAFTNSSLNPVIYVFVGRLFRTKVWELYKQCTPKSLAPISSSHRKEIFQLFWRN
# Assay: Calcium flux assay for Bradykinin B1 antagonist, CHO-K1 cell line expressing human B1
# Format: cell-based
# Details: CHO-K1 cells expressing human B1, agonist Lys-(Des-Arg)-Bradykinin, read-out: Potency (IC50 value against human B1)
# Protocol: Calcium Flux Assay for Bradykinin B1 Antagonist
# The potency to inhibit the Bradykinin B1 receptors was determined for the compounds of this invention in a cell-based fluorescent calcium-mobilization assay. The assay measures the ability of test compounds to inhibit Bradykinin B1 receptor agonist-induced increase of intracellular free Ca^2+ in cell lines expressing B1.
# The change of the intracellular Ca^2+ concentration is monitored with a specifically designed fluorescent plate reader (FlexStation, Molecular Devices).
# CHO-K1 cell line expressing human B1 was purchased from Euroscreen (Gosselies, Belgium, with reference name hBl-D1). CHO-K1 cell lines expressing rat B1 or mouse B1 were established in the following way: the full-length receptor-coding cDNA clones were obtained by PCR performed on rat or mouse brain cDNAs. The respective cDNAs were cloned into an expression vector under the control of a CMV promotor. The resultant plasmids were introduced into CHO-K1 cells with liposome technology (FuGENE; Roche Diagnostics, Basel), according to the standard protocols described by the manufacturer. Cell lines expressing a Bradykinin receptor were selected in the culture medium containing 400 μg/ml G418 (Sigma). From selected cell populations, monoclonal cell lines were isolated by single cell cloning. The expression of Bradykinin receptors was confirmed by immunofluorescence staining of the cells, as well as by calcium flux assay.
# Human B1-expressing cells were grown in Nutrient Mixture Ham's F12 (Sigma) containing 10% Foetal bovine serum (Sigma) and 400 μg/ml G418 (Sigma), 5 μg/ml puromycim (Sigma); Rat B1 and mouse B1-expressing cells were grown in DMEM/F12 medium (Sigma) containing 10% Foetal bovine serum (Sigma) and 400 μg/ml G418 (Sigma).
# For the calcium flux assay, 80% confluent cells were detached from the culture vessels with Versene (Gibco; for human B1 cell-line) or with 1× trypsin-EDTA solution (Sigma; for rodent B1 cell-line), and seeded into 384-well plates (Cell binding Surface; Corning, N.Y.; #3683) at a density of 15,000 cells per well for human B1 or at a density of 20,000 cells per well for rodent B1. Cells were seeded in a volume of 50 μl in medium without antibiotics and incubated overnight in a humidified atmosphere with 5% CO2 at 37° C. The following day, the medium was replaced with 20 μl of 5 μM Fluo-4AM dye (Molecular Probes) in assay buffer (2.5 mM probenicid, 1 mg/ml pluronic acid, 0.1% BSA, 135 mM NaCl, 5 mM KCl, 1.8 mM CaCl, 1 mM MgCl2, 10 mM HEPES, 5.6 mM glucose, 0.05% gelatine, pH 7.4). The calcium indicator loaded cells were incubated at 37° C. for 2 hrs. Extracellular dye was then removed and each well was filled with 45 μl of assay buffer. Cell plates were kept in dark until used. Test compounds were assayed at 8 concentrations in triplicate. Serial 10-fold dilutions in 100% DMSO were made at a 100-times higher concentration than the final concentration, and then diluted 1:10 in assay buffer. 5 μl of each diluted compound was added to the well of cell plates (yielding final concentration with 1% DMSO), and incubated for 30 min at 25° C. before the addition of B1 agonist on the FlexStation.
# The addition of agonist 20 μl per well to the assay plate was carried out on the FlexStation while continuously monitoring Ca^2+-dependent fluorescence at 538 nm. The integrated values, normalized with the background fluorescence, were plotted against the logarithm of the antagonist concentrations.
row,SMILES,IC50
1,"COc1cc(C)c(S(=O)(=O)N(C)Cc2cc(C(=O)NCCc3ccc(Nc4nccc(N)n4)cc3)co2)c(C)c1 [Ex 44, N-(2-{4-[(4-aminopyrimidin-2-yl)amino]phenyl}ethyl)-5-({[(4-methoxy-2,6-dimethylphenyl)sulfonyl](methyl)amino}methyl)furan-3-carboxamide]",100 to 1000 nM
2,"COc1cc(C)c(S(=O)(=O)N(C)Cc2cc(C(=O)NCCc3ccc(Nc4ccnc(N)n4)cc3)co2)c(C)c1 [Ex 45, N-(2-{4-[(2-aminopyrimidin-4-yl)amino]phenyl}ethyl)-5-({[(4-methoxy-2,6-dimethylphenyl)sulfonyl](methyl)amino}methyl)furan-3-carboxamide]",100 to 1000 nM
3,"COc1cc(C)c(S(=O)(=O)N(C)Cc2cc(C(=O)NCCc3ccc(CN4CCCC4)cc3)co2)c(C)c1 [Ex 46, 5-({[(4-methoxy-2,6-dimethylphenyl)sulfonyl](methyl)amino}methyl)-N-{2-[4-(pyrrolidin-1-ylmethyl)phenyl]ethyl}furan-3-carboxamide]",100 to 1000 nM
4,"COc1cc(C)c(S(=O)(=O)N(Cc2cc(C(=O)NCCc3ccc(C4=NCCN4)cc3)co2)CC2CC2)c(C)c1 [Ex 49, 5-({(Cyclopropylmethyl)[(4-methoxy-2,6-dimethylphenyl)sulfonyl]amino}methyl)-N-{2-[4-(4,5-dihydro-1H-imidazol-2-yl)phenyl]ethyl}furan-3-carboxamide]",10 to 100 nM
5,"COc1cc(C)c(S(=O)(=O)N(Cc2cc(C(=O)N(C)CCc3ccc(C4=NCCN4)cc3)co2)C2CCC2)c(C)c1 [Ex 51, 5-({Cyclobutyl[(4-methoxy-2,6-dimethylphenyl)sulfonyl]amino}methyl)-N-{2-[4-(4,5-dihydro-1H-imidazol-2-yl)phenyl]ethyl}-N-methylfuran-3-carboxamide]",< 10 nM
6,"COc1cc(C)c(S(=O)(=O)N(Cc2cc(C(=O)NCCc3ccc(C4=NCCN4)cc3)co2)C2CC2)c(C)c1 [Ex 52, 5-({Cyclopropyl[(4-methoxy-2,6-dimethylphenyl)sulfonyl]amino}methyl)-N-{2-[4-(4,5-dihydro-1H-imidazol-2-yl)phenyl]ethyl}furan-3-carboxamide]",< 10 nM
7,"COc1cc(C)c(S(=O)(=O)N(Cc2cc(C(=O)N3CCN(C4CCN(C)CC4)CC3)co2)C2CC2)c(C)c1 [Ex 53, N-cyclopropyl-4-methoxy-2,6-dimethyl-N-[(4-{[4-(1-methylpiperidin-4-yl)piperazin-1-yl]carbonyl}furan-2-yl)methyl]benzenesulfonamide]",100 to 1000 nM
8,"COc1cc(C)c(S(=O)(=O)N(Cc2cc(C(=O)NCc3cccc(CN4CCCC4)c3)co2)C2CC2)c(C)c1 [Ex 54, 5-({Cyclopropyl[(4-methoxy-2,6-dimethylphenyl)sulfonyl]amino}methyl)-N-[3-(pyrrolidin-1-ylmethyl)benzyl]furan-3-carboxamide]",10 to 100 nM
9,"COc1cc(C)c(S(=O)(=O)N(Cc2cc(C(=O)N(C)Cc3cccc(CN4CCCC4)c3)co2)C2CC2)c(C)c1 [Ex 55, 5-({Cyclopropyl[(4-methoxy-2,6-dimethylphenyl)sulfonyl]amino}methyl)-N-methyl-N-[3-(pyrrolidin-1-ylmethyl)benzyl]furan-3-carboxamide]",10 to 100 nM
10,"COc1cc(C)c(S(=O)(=O)N(Cc2cc(C(=O)NCc3ccc(CN4CCCC4)cc3)co2)C2CC2)c(C)c1 [Ex 56, 5-({Cyclopropyl[(4-methoxy-2,6-dimethylphenyl)sulfonyl]amino}methyl)-N-[4-(pyrrolidin-1-ylmethyl)benzyl]furan-3-carboxamide]",10 to 100 nM
11,"COc1cc(C)c(S(=O)(=O)N(Cc2cc(C(=O)N(C)Cc3ccc(CN4CCCC4)cc3)co2)C2CC2)c(C)c1 [Ex 57, 5-({Cyclopropyl[(4-methoxy-2,6-dimethylphenyl)sulfonyl]amino}methyl)-N-methyl-N-[4-(pyrrolidin-1-ylmethyl)benzyl]furan-3-carboxamide]",10 to 100 nM
12,"COc1cc(C)c(S(=O)(=O)N(C)Cc2ccc(C(=O)N3CCN(C4CCN(C)CC4)CC3)o2)c(C)c1 [Ex 62, 4-Methoxy-N,2,6-trimethyl-N-[(5-{[4-(1-methylpiperidin-4-yl)piperazin-1-yl]carbonyl}furan-2-yl)methyl]benzenesulfonamide]",100 to 1000 nM
13,"COc1cc(C)c(S(=O)(=O)N(C)Cc2cc(C(=O)N3CCN(C4CCN(C)CC4)CC3)no2)c(C)c1 [Ex 65, 4-Methoxy-N,2,6-trimethyl-N-[(3-{[4-(1-methylpiperidin-4-yl)piperazin-1-yl]carbonyl}isoxazol-5-yl)methyl]benzenesulfonamide]",100 to 1000 nM

# More lines, now with the values ahead:
row,IC50,SMILES
1,< 10 nM,"CCN(Cc1cc(C(=O)N(C)CCc2ccc(C3=NCCN3)cc2)co1)S(=O)(=O)c1c(C)cc(OC)cc1C [Ex 47, N-{2-[4-(4,5-dihydro-1H-imidazol-2-yl)phenyl]ethyl}-5-({ethyl[(4-methoxy-2,6-dimethylphenyl)sulfonyl]amino}methyl)-N-methylfuran-3-carboxamide]"
2,10 to 100 nM,"COc1cc(C)c(S(=O)(=O)N(Cc2cc(C(=O)N(C)CCc3ccc(C4=NCCN4)cc3)co2)C(C)C)c(C)c1 [Ex 48, N-{2-[4-(4,5-dihydro-1H-imidazol-2-yl)phenyl]ethyl}-5-({[(4-methoxy-2,6-dimethylphenyl)sulfonyl](1-methylethyl)amino}methyl)-N-methylfuran-3-carboxamide]"
3,100 to 1000 nM,"COc1cc(C)c(S(=O)(=O)N(Cc2cc(C(=O)N(C)Cc3ccc(C4=NCCN4)cc3)co2)c2ccccc2)c(C)c1 [Ex 50, N-[4-(4,5-dihydro-1H-imidazol-2-yl)benzyl]-5-({[(4-methoxy-2,6-dimethylphenyl)sulfonyl] (phenyl)amino}methyl)-N-methylfuran-3-carboxamide]"
4,10 to 100 nM,"COc1cc(C)c(S(=O)(=O)N(C)Cc2cc(C(=O)N(C)Cc3ccc(C4=NCCN4)cc3)c(C)o2)c(C)c1 [Ex 58, N-[4-(4,5-dihydro-1H-imidazol-2-yl)benzyl]-5-({[(4-methoxy-2,6-dimethylphenyl)sulfonyl](methyl)amino}methyl)-N,2-dimethylfuran-3-carboxamide]"
5,100 to 1000 nM,"COc1cc(C)c(S(=O)(=O)N(C)Cc2cc(C(=O)N(C)CCc3ccc(C4=NCCN4)cc3)c(C)o2)c(C)c1 [Ex 59, N-{2-[4-(4,5-dihydro-1H-imidazol-2-yl)phenyl]ethyl}-5-({[(4-methoxy-2,6-dimethylphenyl)sulfonyl](methyl)amino}methyl)-N,2-dimethylfuran-3-carboxamide]"
6,10 to 100 nM,"COc1cc(C)c(S(=O)(=O)N(C)Cc2cc(C(=O)NCCc3ccc(C4=NCCN4)cc3)c(C)o2)c(C)c1 [Ex 61, N-{2-[4-(4,5-dihydro-1H-imidazol-2-yl)phenyl]ethyl}-5-({[(4-methoxy-2,6-dimethylphenyl)sulfonyl](methyl)amino}methyl)-2-methylfuran-3-carboxamide]"
7,< 10 nM,"COc1cc(C)c(S(=O)(=O)N(C)Cc2nsc(C(=O)NCCc3ccc(C4=NCCN4)cc3)n2)c(C)c1 [Ex 63, N-{2-[4-(4,5-dihydro-1H-imidazol-2-yl)phenyl]ethyl}-3-({[(4-methoxy-2,6-dimethylphenyl)sulfonyl](methyl)amino}methyl)-1,2,4-thiadiazole-5-carboxamide]"
8,< 10 nM,"COc1cc(C)c(S(=O)(=O)N(C)Cc2noc(C(=O)NCCc3ccc(C4=NCCN4)cc3)n2)c(C)c1 [Ex 64, N-{2-[4-(4,5-dihydro-1H-imidazol-2-yl)phenyl]ethyl}-3-({[(4-methoxy-2,6-dimethylphenyl)sulfonyl](methyl)amino}methyl)-1,2,4-oxadiazole-5-carboxamide]"
